# Laboratory results reported in patent US7125871B2, “Excitatory amino acid receptor modulators” (Eli Lilly and Company, priority 2000, dated 2006).
# pKi: −log10 of the molar value.
# Molecular target: T1, mGluR2 (Homo sapiens, UniProt Q14416)
# T1 construct: expressed in transfected cells
# Assay: reversal of [3H] LY341495 binding at mGluR2
# Conditions: [3H] LY341495 radioligand; cells expressing human mGluR subtypes
# Experimental: (D. D. Schoepp, et al., Neuropharmacol., 1996, 35, 1661–1672 and 1997, 36, 111).
# LY341495 binding with a Ki of less than 30,000 nM at […]. […] (LY341495 is described in Ornstein et al., J. Med. Chem., 1998, 41, 346–357 and J. Med. Chem., 1998, 41, 358 to 378).
# T1 sequence (Q14416 19-872): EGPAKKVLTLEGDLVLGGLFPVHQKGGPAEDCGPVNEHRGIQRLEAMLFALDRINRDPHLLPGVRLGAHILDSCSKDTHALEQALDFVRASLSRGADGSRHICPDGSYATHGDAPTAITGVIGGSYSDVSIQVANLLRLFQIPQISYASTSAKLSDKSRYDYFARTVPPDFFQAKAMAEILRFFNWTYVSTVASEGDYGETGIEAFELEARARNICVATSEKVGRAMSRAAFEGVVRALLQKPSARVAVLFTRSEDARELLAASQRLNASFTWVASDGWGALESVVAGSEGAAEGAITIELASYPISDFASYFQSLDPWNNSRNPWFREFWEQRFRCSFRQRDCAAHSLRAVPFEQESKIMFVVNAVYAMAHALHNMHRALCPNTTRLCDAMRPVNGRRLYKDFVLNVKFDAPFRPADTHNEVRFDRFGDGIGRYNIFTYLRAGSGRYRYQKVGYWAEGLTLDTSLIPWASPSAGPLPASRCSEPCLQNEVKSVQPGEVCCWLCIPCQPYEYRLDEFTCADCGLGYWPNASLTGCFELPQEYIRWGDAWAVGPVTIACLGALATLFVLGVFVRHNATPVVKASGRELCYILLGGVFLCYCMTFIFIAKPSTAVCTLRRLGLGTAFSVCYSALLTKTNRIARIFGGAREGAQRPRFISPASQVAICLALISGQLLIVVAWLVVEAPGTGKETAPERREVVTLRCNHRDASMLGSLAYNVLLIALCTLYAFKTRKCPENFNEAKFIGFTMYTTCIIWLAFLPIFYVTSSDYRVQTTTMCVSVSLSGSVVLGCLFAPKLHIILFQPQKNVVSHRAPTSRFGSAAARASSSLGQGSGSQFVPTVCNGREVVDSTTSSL
smiles,measurement,value
"N[C@H](C(=O)O)[C@@H]1[C@@H](C(=O)O)[C@@H]1C(=O)NCc1ccccc1 (racemic) [Example 1, (2SR, 1′SR, 2′RS, 3′RS)-2-[2′-carboxy-3′-(phenylmethylaminocarbonyl)cyclopropyl]glycine]",pKi,5.47
